Measured values from BindingDB's records for doi:10.1158/2159-8290.CD-13-1010 (Fred Hutchinson Cancer Research Center, 2014).

Target: Transmembrane protease serine 2 (Homo sapiens, UniProt O15393)
Assay: titration assay
Source text: To identify inhibitors of TMPRSS2 that may be used directly in clinical studies or as lead compounds to develop targeted drugs, we screened several chemical libraries with active TMPRSS2 protease, the […] TMPRSS2 peptide substrate Boc-Gln-Ala-Arg-MCA, and compound concentrations of 5 μmol/L. We have used a similar approach to identify inhibitors of the hepsin protease.

Transmembrane protease serine 2, sequence (O15393 1-255 limits assumed): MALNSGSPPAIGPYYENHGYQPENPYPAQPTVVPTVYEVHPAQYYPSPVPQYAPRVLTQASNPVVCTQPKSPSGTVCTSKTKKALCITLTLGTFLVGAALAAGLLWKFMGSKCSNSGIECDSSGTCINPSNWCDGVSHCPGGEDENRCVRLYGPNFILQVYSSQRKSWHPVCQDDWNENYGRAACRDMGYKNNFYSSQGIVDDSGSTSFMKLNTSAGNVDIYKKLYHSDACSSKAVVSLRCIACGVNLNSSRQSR
Transmembrane protease serine 2, sequence (O15393 256-492 limits assumed): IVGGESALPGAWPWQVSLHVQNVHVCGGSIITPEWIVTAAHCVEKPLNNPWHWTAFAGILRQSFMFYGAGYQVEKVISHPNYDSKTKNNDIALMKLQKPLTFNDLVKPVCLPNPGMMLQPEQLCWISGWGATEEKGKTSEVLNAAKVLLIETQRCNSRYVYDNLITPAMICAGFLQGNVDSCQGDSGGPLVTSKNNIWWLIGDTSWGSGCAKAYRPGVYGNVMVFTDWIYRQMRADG

IC50 [nM] | Compound
1370 | COC(=O)Cc1cc(=O)oc2cc(O)ccc12
930 | COC(=O)c1ccc(OC(=O)c2cccs2)cc1 [0591-5329]

The remaining lines, values behind:

Compound | IC50 [nM]
CCN1CCn2c3c(c4cc(Br)ccc42)CCCC31 (stereo not given) [4401-0077] | 2680
CCn1c(-c2ccc(Cl)cc2)csc1=Nc1ccccc1 [8008-1235] | 2640
CN(Cc1cc(Br)cc(Br)c1N)C1CCCCC1 [Bromhexine] | 750
